Where two headings read alike, the source gives them in different places.
Key:
[1] = tested on: MCF-7 cells; assay: Growth studies in vitro: estrogen-stimulated MCF-7 cell proliferation (CellTiter-Glo luminescent viability assay); assay type: cell-based, human; details: for IC50: single agent, E2 (1 nM)-stimulated MCF-7 cells, Day 6, read-out: IC50 value, inhibition of MCF-7 cell growth; for inhibition at 0.1 µM: read-out: inhibited cell proliferation
Procedure: Cell lines. MCF-7 cells were provided from Dr. A. Brodie (University of Maryland School of Medicine, Baltimore, Md.) and cultured in DMEM supplemented with 5% fetal bovine serum (FBS) and 1% penicillin/streptomycin (P/S). MCF-7arom cells were provided from Dr. S. Chen (Beckman Research Institute of the City of Hope, Duarte, Calif.) and cultured in DMEM supplemented with 5% FBS and 750 μg/ml geneticin.
Growth studies in vitro. Six days prior to plating in 96-well plates, MCF-7 cells growing in T-75 flasks (30-50% confluent) were washed extensively with phenyl red-free DPBS and transferred to estrogen-depleted medium. Estrogen-depleted medium was phenyl red-free DMEM/F-12 containing 10% heat-treated and dextran-coated charcoal-treated fetal bovine serum and 1% penicillin/streptomycin solution. Estrogen depleted media was refreshed 3 days prior to plating. On Day 0, cells were seeded (1,200 cells/well) into 96-well plates in estrogen-depleted medium and allowed to attach. On Day 1 the media was aspirated and replaced in 6-well replicates with estrogen-depleted medium supplemented with E2 (1 nM), and 4-OH Tamoxifen (Sigma Chemical Company, St Louis, Mo. in the range 10 nM-10 μM), or Fulvestrant (Tocris, Ellisville, Mo. in the range 10 nM-1.0 μM), FTI (in the range 10 nM-10 μM), and a combination of the antiestrogens and FTI. Media containing drugs was refreshed on Day 3. The effects of treatment on cell proliferation were determined on Day 6 using the CellTiter-Glo luminescent viability assay (Promega Corp., Madison, Wis.).

[2] = tested on: MCF-7arom breast tumor xenografts; assay: MCF-7arom breast tumor xenograft growth in vivo, FTI plus Anastrozole; parameters: species or system athymic nude mice; details: for induction of tumor regression / tumor regression: 28 days; for inhibited tumor growth compared to vehicle-treated animals: 28 days of treatment
Procedure: (§1) Growth Studies in vivo. Female ovariectomized athymic nude mice were obtained from Charles River Laboratories (Worcester, Mass.). Androstenedione (Δ4A) pellets (25 mg and 15 mg, 90-day slow release) and 17β-estradiol (E2) pellets (0.72 mg, 60-day slow release) were from Innovative Research of America (Saratoga, Fla.). Anastrozole and Letrozole were obtained from Sequoia Research Products, Oxford, United Kingdom) and Tamoxifen was from Sigma Chemical Company.
MCF-7arom breast tumor growth was performed as described previously (Lu et al., 1999, Breast Cancer Res. Treat., 57, 183-192; Long et al., 2002, Clin Cancer Res., 8, 2378-2388) with minor modifications. To determine the effect of combined FTI plus Anastrozole on the growth of MCF-7arom breast tumor xenografts, 2.5×10^6 MCF-7arom cells were inoculated into the right flank of the animals in 100 μl of Matrigel (BD Biosciences, Bedford, Mass.). Animals had been implanted with a 25 mg, 90-day Δ4A pellet the previous day. Fourteen days after cell inoculation, the animals were grouped (n=10) for treatment with: • 1) Vehicle • 2) Anastrozole (5 mg per kg [mpk], orally [p.o.], twice a day [b.i.d.]) • 3) FTI (20 mpk, p.o., b.i.d.) • 4) FTI (40 mpk, p.o., b.i.d.) • 5) FTI (60 mpk, p.o., b.i.d.) • 6) FTI (20 mpk, p.o., b.i.d.)+Anastrozole (5 mpk, p.o., b.i.d.) • 7) FTI (40 mpk, p.o., b.i.d.)+Anastrozole (5 mpk, p.o., b.i.d.) • 8) FTI (60 mpk, p.o., b.i.d.)+Anastrozole (5 mpk, p.o., b.i.d.)
Treatment was continued for 28 days and tumor volumes were measured twice a week with calipers. Tumor volumes and animal body weights were recorded using LABCAT (Innovative Programming Associates Inc., Princeton, N.J.). Tumor volumes were calculated by the formula (w×l×h)/2.

[3] = tested on: MCF-7arom breast tumor xenografts; assay: MCF-7arom breast tumor xenograft growth in vivo, FTI plus Letrozole; parameters: species or system athymic nude mice; details: Day 10 of treatment
Procedure: as §1
(§2) To determine the effect of combined FTI plus Letrozole on the growth of MCF-7arom breast tumor xenografts, 5×10^6 MCF-7arom cells were inoculated into the right flank of the animals in 100 μl of Matrigel. Animals had been implanted with a 15 mg, 90-day Δ4A pellet the previous day. Fourteen days after cell inoculation, the animals were grouped (n=10) for treatment with: • 1) Vehicle • 2) Letrozole (2.5 mpk, p.o., once a day [q.d.]) • 3) FTI (20 mpk, p.o., b.i.d.) • 4) FTI (40 mpk, p.o., b.i.d.) • 5) FTI (20 mpk, p.o., b.i.d.)+Letrozole (2.5 mpk, p.o., q.d.) • 6) FTI (40 mpk, p.o., b.i.d.)+Letrozole (2.5 mpk, p.o., q.d.)
(§3) Treatment was continued for 28 days and tumor volumes were measured twice a week with calipers as described above.

[4] = tested on: MCF-7arom breast tumor xenografts; assay: MCF-7arom breast tumor xenograft growth in vivo, FTI plus Tamoxifen; parameters: species or system athymic nude mice; details: Day 10 of treatment
Procedure: as §1
as §2, with “Tamoxifen” for “Letrozole”, “Tamoxifen (25” for “Letrozole (2.5”, “q.d.)” for “once a day [q.d.])”, “b.i.d.)+Tamoxifen (25” for “b.i.d.)+Letrozole (2.5”
as §3

[5] = tested on: MCF-7 breast tumor xenografts; assay: Estrogen-stimulated MCF-7 breast tumor xenograft growth in vivo, FTI plus Tamoxifen; parameters: species or system athymic nude mice
Procedure: as §1
MCF-7 breast tumor growth was performed as described previously (Osborne et al., 1995, J. Natl Cancer Inst., 87, 746-750) with minor modifications. To determine the effect of combined FTI plus Tamoxifen on the growth of MCF-7 breast tumor xenografts, 5.0×10^6 MCF-7 cells were inoculated into the right flank of the animals in 100 μl of Matrigel. Animals had been implanted with a 0.72 mg, 60-day pellet the previous day. Fourteen days after cell inoculation, the animals were grouped for treatment with: • 1) Vehicle • 2) Tamoxifen (25 mpk, p.o., q.d.) • 3) FTI (20 mpk, p.o., b.i.d.) • 4) FTI (40 mpk, p.o., b.i.d.) • 5) FTI (20 mpk, p.o., b.i.d.)+Tamoxifen (25 mpk, p.o., q.d.) • 6) FTI (40 mpk, p.o., b.i.d.)+Tamoxifen (25 mpk, p.o., q.d.)
as §3

How did the IC50 [1] turn out when CC/C(=C(\c1ccc(O)cc1)c1ccc(OCCN(C)C)cc1)c1ccccc1 [4-OH Tamoxifen, reference compound] was run?
The IC50 was 450 nM.

And the inhibited cell proliferation ([1]; single-agent 4-OH Tamoxifen 1.0 μM (FIG. 1))?
The inhibited cell proliferation was 55%.

Which results are given for CC(C)(C#N)c1cc(Cn2cncn2)cc(C(C)(C)C#N)c1 [Anastrozole, reference compound]?
induction of tumor regression ([2]; Anastrozole 5 mpk b.i.d.): did not induce tumor regression; inhibited tumor growth compared to vehicle-treated animals ([2]; Anastrozole 5 mpk p.o. b.i.d.): 62%

NC(=O)N1CCC(CC(=O)N2CCC([C@H]3c4ncc(Br)cc4CCc4cc(Cl)cc(Br)c43)CC2)CC1 [FTI] was tested. Which IC50 ([1]; Homo sapiens, MCF7, 144 h) did it give?
The IC50 was 40 nM.

And the inhibition at 0.1 µM ([1]; Homo sapiens, MCF7, single-agent FTI 0.1 μM, 4-OH Tamoxifen experiment (FIG. 1))?
The inhibition at 0.1 µM was 56%.

And the inhibition at 0.1 µM ([1]; Homo sapiens, MCF7, single-agent FTI 0.1 μM, Fulvestrant experiment (FIG. 2))?
The inhibition at 0.1 µM was 43%.

What about the “induction of tumor regression” value ([2]; FTI 20 mpk b.i.d.) of the same compound?
The value was “did not induce tumor regression”.

And the “inhibited tumor growth compared to vehicle-treated animals” value ([2]; FTI 20 mpk p.o. b.i.d.)?
Its value is 56%.

And the tumor regression ([2]; single-agent FTI 40 mpk b.i.d.)?
The tumor regression was 16%.

What about the tumor regression ([2]; single-agent FTI 60 mpk b.i.d.) of the same compound?
Its tumor regression is 40%.

And the inhibited tumor growth ([3]; FTI 40 mpk p.o. b.i.d.)?
The inhibited tumor growth was 16%.

What about the inhibited tumor growth ([4]; FTI 40 mpk p.o. b.i.d.) of the same compound?
The inhibited tumor growth was 16%.

And the “tumor regression, % of initial starting volume” value ([5]; single-agent FTI 40 mpk b.i.d., Day 14 of treatment)?
The value was 57%.

How did the inhibition at 0.1 µM ([1]; Homo sapiens, MCF7, single-agent Fulvestrant 0.1 μM (FIG. 2)) turn out when C[C@]12CC[C@@H]3c4ccc(O)cc4C[C@@H](CCCCCCCCC[S+]([O-])CCCC(F)(F)C(F)(F)F)[C@H]3[C@@H]1CC[C@@H]2O (stereo partly shown) [Fulvestrant, reference compound] was run?
The inhibition at 0.1 µM was 53%.

What does the source list for N#Cc1ccc(C(c2ccc(C#N)cc2)n2cncn2)cc1 [Letrozole]?
inhibited tumor growth ([3]; Letrozole 2.5 mpk p.o. q.d.): 127%; tumor regression ([3]; Letrozole 2.5 mpk p.o. q.d.): 25%

CC/C(=C(\c1ccccc1)c1ccc(OCCN(C)C)cc1)c1ccccc1 [Tamoxifen, reference compound] was tested. Which inhibited tumor growth ([4]; Tamoxifen 25 mpk p.o. q.d.) did it give?
Its inhibited tumor growth is 22%.

What about the inhibited tumor growth ([5]; Tamoxifen 25 mpk q.d., 14 days of treatment) of the same compound?
Its inhibited tumor growth is 29%.

Reference: US20050119188A1, “Method of treating breast cancer” (priority 2003, published 2005)
